In patent US20240294531A1, “COVALENT HETEROCYCLES AND USES THEREOF” (Kumquat Biosciences Inc., priority 2022, published 2024) one finds IC50 data, which are given here for 22 compounds.

One test has as its target BTK wildtype protein (Homo sapiens (Human), UniProt Q06187). The test can be described thus: BTK wildtype HTRF displacement assay. As to conditions: 1-hour incubation; read-out: BTK (wt) IC50. The class given is binding. An outline of the steps: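 Tracer-displacement HTRF format: compound and tracer 239 compete at the BTK active site, detected via anti-GST-Tb on GST-tagged full-length enzyme. One-hour room-temperature incubation; compounds dosed at six four-fold steps down from 5 μM. Percent inhibition versus DMSO gives IC50 by constrained four-parameter logistic fit.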

The next test addresses BTK C481S protein (Homo sapiens (Human), UniProt Q06187, C481S). Nature of the test: BTK C481S HTRF displacement assay. The class given is binding. Particulars: 1-hour incubation. An outline of the steps: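 Tracer displacement read by HTRF after 1 hour at room temperature: GST-BTK C481S 2-659, 50 nM tracer 239 (Kd 54 nM), anti-GST antibody, compound in six four-fold doses from 5 μM. Percent inhibition versus DMSO fitted (bottom 0, top 100) for IC50, converted to KI via Cheng-Prusoff.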

pIC50: −log10 of the molar value.

Chain of BTK wildtype protein (Q06187 2-659): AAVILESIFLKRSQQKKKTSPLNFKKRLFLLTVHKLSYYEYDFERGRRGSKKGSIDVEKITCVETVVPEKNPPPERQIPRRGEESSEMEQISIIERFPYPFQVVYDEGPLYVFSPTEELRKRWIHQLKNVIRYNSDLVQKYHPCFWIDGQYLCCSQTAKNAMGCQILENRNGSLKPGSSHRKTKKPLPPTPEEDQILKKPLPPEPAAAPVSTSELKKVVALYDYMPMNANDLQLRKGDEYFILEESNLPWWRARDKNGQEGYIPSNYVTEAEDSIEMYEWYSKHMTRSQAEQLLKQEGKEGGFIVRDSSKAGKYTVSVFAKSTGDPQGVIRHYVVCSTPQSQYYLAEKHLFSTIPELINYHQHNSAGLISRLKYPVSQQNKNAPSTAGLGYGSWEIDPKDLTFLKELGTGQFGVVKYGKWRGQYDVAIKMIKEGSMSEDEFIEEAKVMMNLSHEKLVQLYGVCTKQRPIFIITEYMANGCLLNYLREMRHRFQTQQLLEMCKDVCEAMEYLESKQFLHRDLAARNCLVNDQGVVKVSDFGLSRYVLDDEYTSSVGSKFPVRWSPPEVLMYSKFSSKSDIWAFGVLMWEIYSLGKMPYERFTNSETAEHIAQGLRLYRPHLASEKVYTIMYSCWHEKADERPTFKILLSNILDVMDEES
Chain of BTK C481S protein (Q06187 2-659 C481S): as the sequence (Q06187 2-659) above, with C480S counted along it

For `COc1ccc(F)cc1C(=O)NCc1ccc(-c2nn(C[C@@H]3C[C@@H](F)CN3C(=O)n3cncn3)c3ncnc(N)c23)cc1` [Compound 221, N-(4-(4-amino-1-(((2S,4R)-4-fluoro-1-(1H-1,2,4-triazole-1-carbonyl)pyrrolidin-2-yl)methyl)-1H-pyrazolo[3,4-d]pyrimidin-3-yl)benzyl)-5-fluoro-2-methoxybenzamide], the pIC50 was under 6.00 at BTK wildtype protein and at least 6.00 on BTK C481S protein.

For the compound `COc1ccc(F)cc1C(=O)NCc1ccc(-c2nn([C@H]3CCCC[C@@H](N(C)C(=O)n4cncn4)C3)c(N)c2C(N)=O)cc1` [Compound 222, N-((1R,3S)-3-(5-amino-4-carbamoyl-3-(4-((5-fluoro-2-methoxybenzamido)methyl)phenyl)-1H-pyrazol-1-yl)cycloheptyl)-N-methyl-1H-1,2,4-triazole-1-carboxamide], the negative-log IC50 (pIC50) at BTK wildtype protein and at BTK C481S protein was at least 6.00 each time.

With `NC(=O)c1c(-c2ccc(Oc3ccccc3)cc2)nn2c1NCC[C@H]2[C@@H]1CCCCN1C(=O)n1cncn1` [Compound 223, (S)-7-((S)-1-(1H-1,2,4-triazole-1-carbonyl)piperidin-2-yl)-2-(4-phenoxyphenyl)-4,5,6,7-tetrahydropyrazolo[1,5-a] pyrimidine-3-carboxamide], the negative-log IC50 (pIC50) on BTK wildtype protein and at BTK C481S protein was under 6.00 throughout.

For `COc1ccc(F)cc1C(=O)NCc1ccc(-c2nn(C[C@@H]3C[C@@H](O)CN3C(=O)n3cncn3)c3ncnc(N)c23)cc1` [Compound 224, N-(4-(4-amino-1-(((2S,4R)-4-hydroxy-1-(1H-1,2,4-triazole-1-carbonyl)pyrrolidin-2-yl)methyl)-1H-pyrazolo[3,4-d]pyrimidin-3-yl)benzyl)-5-fluoro-2-methoxybenzamide], the pIC50 at BTK wildtype protein and on BTK C481S protein was under 6.00 in each case.

For `COc1ccc(F)cc1C(=O)NCc1ccc(-c2nn(C3(CCN(C)C(=O)n4cncn4)CC3)c3ncnc(N)c23)cc1` [Compound 225, N-(2-(1-(4-amino-3-(4-((5-fluoro-2-methoxybenzamido)methyl)phenyl)-1H-pyrazolo[3,4-d]pyrimidin-1-yl)cyclopropyl)ethyl)-N-methyl-1H-1,2,4-triazole-1-carboxamide], the negative-log IC50 (pIC50) is at least 6.00 at BTK wildtype protein and under 6.00 at BTK C481S protein.

For `COc1ccc(F)cc1C(=O)NCc1ccc(-c2nn(C(C)CN(C)C(=O)n3cncn3)c3ncnc(N)c23)cc1` (centres unmarked) [Compound 226, N-(2-(4-amino-3-(4-((5-fluoro-2-methoxybenzamido)methyl)phenyl)-1H-pyrazolo[3,4-d]pyrimidin-1-yl)propyl)-N-methyl-1H-1,2,4-triazole-1-carboxamide], the pIC50 at BTK wildtype protein and at BTK C481S protein was at least 6.00 in each case.

With `NC(=O)c1c(-c2ccc(Oc3ccccc3)cc2)nn2c1NCC1CN(C(=O)n3cncn3)CC12` (centres unmarked) [Compound 228, 2-(4-phenoxyphenyl)-7-(1H-1,2,4-triazole-1-carbonyl)-5,5a,6,7,8,8a-hexahydro-4H-pyrazolo[1,5-a] pyrrolo[3,4-e]pyrimidine-3-carboxamide], the negative-log IC50 (pIC50) on BTK wildtype protein and on BTK C481S protein was under 6.00 throughout.

In the case of `COc1ccc(F)cc1C(=O)NCc1ccc(-c2nn(CC3CCCCC3N(C)C(=O)n3cncn3)c(N)c2C(N)=O)cc1` (centres unmarked) [Compound 229, N-(2-((5-amino-4-carbamoyl-3-(4-((5-fluoro-2-methoxybenzamido)methyl)phenyl)-1H-pyrazol-1-yl)methyl)cyclohexyl)-N-methyl-1H-1,2,4-triazole-1-carboxamide], the pIC50 at BTK wildtype protein and on BTK C481S protein was at least 6.00 throughout.

For `COc1ccc(F)cc1C(=O)NCc1ccc(-c2nn(C(C)CN(C(=O)n3cncn3)C3CC3)c3ncnc(N)c23)cc1` (centres unmarked) [Compound 230, N-(2-(4-amino-3-(4-((5-fluoro-2-methoxybenzamido)methyl)phenyl)-1H-pyrazolo[3,4-d]pyrimidin-1-yl)propyl)-N-cyclopropyl-1H-1,2,4-triazole-1-carboxamide], the pIC50 is under 6.00 at BTK wildtype protein and at least 6.00 at BTK C481S protein.

As to `COc1ccc(F)cc1C(=O)NCc1ccc(-c2nn(C(CN(C(=O)n3cncn3)C3CC3)C3CC3)c3ncnc(N)c23)cc1` (centres unmarked) [Compound 231, N-(2-(4-amino-3-(4-((5-fluoro-2-methoxybenzamido)methyl)phenyl)-1H-pyrazolo[3,4-d]pyrimidin-1-yl)-2-cyclopropyl-ethyl)-N-cyclopropyl-1H-1,2,4-triazole-1-carboxamide], the pIC50 on BTK wildtype protein and at BTK C481S protein was under 6.00 each time.

In the case of `COc1ccc(F)cc1C(=O)NCc1ccc(-c2nn([C@H]3CCCC[C@H](N(C)C(=O)n4cncn4)C3)c(N)c2C(N)=O)cc1` [Compound 232, N-((1S,3S)-3-(5-amino-4-carbamoyl-3-(4-((5-fluoro-2-methoxybenzamido)methyl)phenyl)-1H-pyrazol-1-yl)cycloheptyl)-N-methyl-1H-1,2,4-triazole-1-carboxamide], the pIC50 at BTK wildtype protein and at BTK C481S protein was at least 6.00 throughout.

In the case of `CN(C(=O)n1cncn1)C1CCC2CNc3c(C(N)=O)c(-c4ccc(Oc5ccccc5)cc4)nn3C2C1` (centres unmarked) [Compound 234, 8-(N-methyl-1H-1,2,4-triazole-1-carboxamido)-2-(4-phenoxyphenyl)-4,5,5a,6,7,8,9,9a-octahydro-pyrazolo[1,5-a]quinazoline-3-carboxamide], the negative-log IC50 (pIC50) on BTK wildtype protein and on BTK C481S protein was under 6.00 throughout.

`CN(C(=O)n1cncn1)C1CCCC1C1CCNc2c(C(N)=O)c(-c3ccc(Oc4ccccc4)cc3)nn21` (centres unmarked) [Compound 235, 7-(2-(N-methyl-1H-1,2,4-triazole-1-carboxamido)cyclopentyl)-2-(4-phenoxyphenyl)-4,5,6,7-tetrahydropyrazolo[1,5-a] pyrimidine-3-carboxamide]: the pIC50 at BTK wildtype protein and on BTK C481S protein was under 6.00 each time.

As for `COc1ccc(F)cc1C(=O)NCc1ccc(-c2nn(C(Cc3ccccc3)CN(C)C(=O)n3cncn3)c3ncnc(N)c23)cc1` (centres unmarked) [Compound 237, N-(2-(4-amino-3-(4-((5-fluoro-2-methoxybenzamido)methyl)phenyl)-1H-pyrazolo[3,4-d]pyrimidin-1-yl)-3-phenylpropyl)-N-methyl-1H-1,2,4-triazole-1-carboxamide], the pIC50 at BTK wildtype protein and at BTK C481S protein was under 6.00 each time.

With `CNc1c(C(N)=O)c(-c2ccc(Oc3ccccc3)cc2)nn1C[C@@H]1CCCCN1C(=O)n1cncn1` [Compound 238, (S)-1-((1-(1H-1,2,4-triazole-1-carbonyl)piperidin-2-yl)methyl)-5-(methylamino)-3-(4-phenoxyphenyl)-1H-pyrazole-4-carboxamide], the pIC50 at BTK wildtype protein was at least 6.00; on BTK C481S protein, under 6.00.

For `CN(C(=O)n1cnc(Cl)n1)C1CCCC(n2nc(-c3ccc(Oc4ccccc4)cc3)c3c(N)ncnc32)C1` (centres unmarked) [Compound 239, N-(3-(4-amino-3-(4-phenoxyphenyl)-1H-pyrazolo[3,4-d]pyrimidin-1-yl)cyclohexyl)-3-chloro-N-methyl-1H-1,2,4-triazole-1-carboxamide], the pIC50 on BTK wildtype protein and on BTK C481S protein was at least 6.00 throughout.

As to `NC(=O)c1c(-c2ccc(Oc3ccccc3)cc2)nn2c1NCCC2CN(C(=O)n1cncn1)C1CC1` (centres unmarked) [Compound 240, 7-((N-cyclopropyl-1H-1,2,4-triazole-1-carboxamido)methyl)-2-(4-phenoxyphenyl)-4,5,6,7-tetrahydro-pyrazolo[1,5-a]pyrimidine-3-carboxamide], the pIC50 on BTK wildtype protein and on BTK C481S protein was under 6.00 in each case.

Regarding `COc1ccc(F)cc1C(=O)NCc1ccc(-c2nn(C[C@@H]3C[C@H](O)CN3C(=O)n3cncn3)c3ncnc(N)c23)cc1` [Compound 241, N-(4-(4-amino-1-(((2S,4S)-4-hydroxy-1-(1H-1,2,4-triazole-1-carbonyl)pyrrolidin-2-yl)methyl)-1H-pyrazolo[3,4-d]pyrimidin-3-yl)benzyl)-5-fluoro-2-methoxybenzamide], the pIC50 at BTK wildtype protein and at BTK C481S protein was at least 6.00 in each case.

As to `CC(C)[C@H](C1CCNc2c(C(N)=O)c(-c3ccc(Oc4ccccc4)cc3)nn21)N(C)C(=O)n1cncn1` (stereo partly drawn) [Compound 242, 7-((R)-2-methyl-1-(N-methyl-1H-1,2,4-triazole-1-carboxamido)propyl)-2-(4-phenoxyphenyl)-4,5,6,7-tetrahydropyrazolo[1,5-a] pyrimidine-3-carboxamide], the pIC50 on BTK wildtype protein and on BTK C481S protein was under 6.00 each time.

Regarding `COc1ccc(F)cc1C(=O)NCc1ccc(-c2nn(C(CN(C)C(=O)n3cncn3)c3ccccc3)c3ncnc(N)c23)cc1` (centres unmarked) [Compound 243, N-(2-(4-amino-3-(4-((5-fluoro-2-methoxybenzamido)methyl)phenyl)-1H-pyrazolo[3,4-d]pyrimidin-1-yl)-2-phenylethyl)-N-methl-1H-1,2,4-triazole-1-carboxamide], the negative logarithm of the IC50 (pIC50) on BTK wildtype protein and on BTK C481S protein was under 6.00 each time.

On to `CN(CCC1CCNc2c(C(N)=O)c(-c3ccc(Oc4ccccc4)cc3)nn21)C(=O)n1cncn1` (centres unmarked) [Compound 244, 7-(2-(N-methyl-1H-1,2,4-triazole-1-carboxamido)ethyl)-2-(4-phenoxyphenyl)-4,5,6,7-tetrahydropyrazolo[1,5-a] pyrimidine-3-carboxamide], for which the negative-log IC50 (pIC50) on BTK wildtype protein and at BTK C481S protein was at least 6.00 each time.

For `COc1ccc(F)cc1C(=O)NCc1ccc(-c2nn(CC3CCN(C(=O)n4cncn4)C3)c3ncnc(N)c23)cc1` (centres unmarked) [Compound 245, N-(4-(1-((1-(1H-1,2,4-triazole-1-carbonyl)pyrrolidin-3-yl)methyl)-4-amino-1H-pyrazolo[3,4-d]pyrimidin-3-yl)benzyl)-5-fluoro-2-methoxybenzamide], the negative logarithm of the IC50 (pIC50) on BTK wildtype protein and on BTK C481S protein was at least 6.00 in each case.
